Test results as given in US20100092456A1, “METHODS OF TREATMENT” (priority 2006, published 2010).

Key:
ING2 = test: Western blot of endogenous ING2 associated with the CEF of MEL cells; assay type: cell-based, Murine; settings: differentiated MEL cells; H2O2 500 μM, 15 minutes
Method: FIG. 4. A) Exponentially growing MEL cells were irradiated with either 200 J/m of UV light or 10 Gy of gamma radiation. After 30 minutes the CEF was isolated and the subjected to SDS-PAGE followed by transfer of the separated proteins to a nitrocellulose membrane. Western blotting for endogenous ING2 and histone 4 proteins was performed. Representative western blots are shown. B) Exponentially growing MEL cells were incubated in the absence or presence of N-acetyl cysteine (NAC) (5 mM) for 4 hours prior to a control irradiation or exposed to 200 J/m of UV light before the isolation of the CEF. Differentiated MEL cells were incubated in the absence or presence of H2O2 (500 μM) for 15 minutes prior to the isolation of the CEF. Proteins in the CEF were subjected to SDS-PAGE followed by transfer to a nitrocellulose membrane. Western blotting for endogenous ING2 and histone 4 proteins was performed. Representative western blots are shown. C) MEL cells were preincubated with either vehicle, wortmannin (200 nM and 5 μM) or curcumin (100 μM) were irradiated with 200 J/m of UV light. After 30 minutes the CEF was isolated and proteins were subjected to SDS-PAGE followed by transfer to a nitrocellulose membrane. Western blotting for endogenous ING2 and histone 4 proteins was performed. Representative western blots are shown. D) The CEF from transiently transfected MEL cells with either pSuper or pSuper-IIβRNAi was prepared. Proteins in the CEF were subjected to SDS-PAGE followed by transfer to a nitrocellulose membrane. […] Proteins were analysed by standard western blotting procedures employing the following antibodies: anti-tubulin and anti-flag (both from Sigma), anti-actin (Chemicon International), anti-histone 4 (Upstate Biotechnology), anti-phospho p54, anti-phospho p46, anti-phospho p38, total p54, total p46 and total p38 (all from Cell Signalling Technology) anti-ING2, anti EGFP (Clontech), anti-type II β PIP kinase, anti-GST and anti-myc (both generated in house).

PIP 5-K = target: T1, PIP 5-K (Mus musculus, UniProt P70181); test: In vitro activity of recombinant PIP 5-K (radioactive ATP, TLC); assay type: biochemical; settings: apoptotic concentrations of H2O2; Cysteine 175 to serine mutant is not sensitive
T1 construct: expressed in transfected cells; host or cells: HeLa cells
T1 sequence (P70181 whole entry): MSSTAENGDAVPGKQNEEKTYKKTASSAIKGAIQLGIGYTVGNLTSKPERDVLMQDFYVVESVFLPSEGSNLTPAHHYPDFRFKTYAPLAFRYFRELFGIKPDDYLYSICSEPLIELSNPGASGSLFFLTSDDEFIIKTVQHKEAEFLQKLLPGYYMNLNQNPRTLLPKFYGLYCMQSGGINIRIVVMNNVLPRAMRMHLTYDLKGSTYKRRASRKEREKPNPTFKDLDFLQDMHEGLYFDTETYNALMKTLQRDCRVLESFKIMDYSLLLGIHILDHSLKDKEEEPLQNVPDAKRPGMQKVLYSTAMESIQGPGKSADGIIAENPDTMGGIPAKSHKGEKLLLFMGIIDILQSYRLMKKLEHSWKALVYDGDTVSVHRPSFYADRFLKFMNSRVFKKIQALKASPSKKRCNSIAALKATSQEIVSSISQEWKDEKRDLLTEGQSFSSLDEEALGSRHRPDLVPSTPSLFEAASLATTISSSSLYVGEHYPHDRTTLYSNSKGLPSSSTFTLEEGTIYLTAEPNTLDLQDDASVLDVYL
Method: (§1) Panel B: Recombinant wild type PIP 5-K and a point mutation of PIP 5-K—(cysteine 175 altered to a serine residue) were both treated with H2O2 and enzyme activity was assayed in vitro by measuring the amount of product that is produced after incubation with substrate and radioactive ATP. The products were then analysed on TLC plate using phosphoimager.
as §1, with “Recombinant” for “Panel B: Recombinant”, “5-K-(cysteine” for “5-K—(cysteine”, “phosphoimager. […] (FIG. 12, panel B).” for “phosphoimager.”

activity of recombinant wild type PIP 5-K after treatment (PIP 5-K): sensitive
SMILES: OO [H2O2]
ING2 translocation to the CEF (ING2): stimulated
